Reference: US20090197897A1, “Novel Oxadiazole Derivatives and Their Use as Positive Allosteric Modulators of Metabotropic Glutamate Receptors” (Addex Pharma SA, priority 2005, published 2009)

Molecular target: T1, rat mGluR5 (Rattus norvegicus, UniProt P31424)
T1 construct: expressed in transfected cells
Experiment: mGluR5 assay on HEK-expressing rat mGluR5 (fluorescent cell based Ca2+ mobilization assay)
Conditions: HEK-293 cells stably expressing rat mGluR5; no co-addition of glutamate; mean of at least three independent experiments in duplicate; read-out: Ca++ Flux (mean EC50)
Protocol: mGluR5 Assay on HEK-Expressing Rat mGluR5
Positive functional expression of HEK-293 cells stably expressing rat mGluR5 receptor was determined by measuring intracellular Ca^2+ changes using a Fluorometric Imaging Plate Reader (FLIPR, Molecular Devices, Sunnyvale, Calif.) in response to glutamate or selective known mGluR5 agonists and antagonists. Rat mGluR5 RT-PCR products in HEK-293 cells were sequenced and found 100% identical to rat mGluR5 Genbank reference sequence (NM_017012). HEK-293 cells expressing rmGluR5 were maintained in media containing DMEM, dialyzed Fetal Bovine Serum (10%), Glutamax™ (2 mM), Penicillin (100 units/ml), Streptomycin (100 μg/ml), Geneticin (100 μg/ml) and Hygromycin-B (40 μg/ml) at 37° C./5% CO2.
After one day of incubation, cells were washed with assay buffer containing: 142 mM NaCl, 6 mM KCl, 1 mM […], 1 mM CaCl2, 20 mM HEPES, 1 g/L glucose, 0.125 mM sulfinpyrazone, pH 7.4. After 60 min of loading with 4 uM Fluo-4 (TefLabs, Austin, Tex.), the cells were washed three times with 50 μl of PBS Buffer and resuspended in 45 μl of assay Buffer. The plates were then transferred to a Fluorometric Imaging Plate Reader (FLIPR, Molecular Devices, Sunnyvale, Calif.) for the assessment of intracellular calcium flux. After monitoring the baseline fluorescence for 10 seconds, increasing concentrations of representative compound (from 0.01 to 60 μM) of the present invention diluted in Assay Buffer (15 μl of 4× dilutions) was added to the cell. The final DMSO concentration in the assay was 0.3%. In each experiment, fluorescence was then monitored as a function of time for 3 minutes and the data analyzed using Microsoft Excel and GraphPad Prism. Each data point was also measured two times.
Under these experimental conditions, this HEK-rat mGluR5 cell line is able to directly detect positive allosteric modulators without the need of co-addition of glutamate or mGluR5 agonist.
The concentration-response curves of representative compounds of the present invention were generated using the Prism GraphPad software (Graph Pad Inc, San Diego, USA). The curves were fitted to a four-parameter logistic equation:
(Y=Bottom+(Top−Bottom)/(1+10̂((Log EC50−X)*Hill Slope)
allowing determination of EC50 values.
The Table 1 below represents the mean EC50 obtained from at least three independent experiments of selected molecules performed in duplicate.

T1 sequence (P31424 21-1171 isoform P31424-2 limits assumed): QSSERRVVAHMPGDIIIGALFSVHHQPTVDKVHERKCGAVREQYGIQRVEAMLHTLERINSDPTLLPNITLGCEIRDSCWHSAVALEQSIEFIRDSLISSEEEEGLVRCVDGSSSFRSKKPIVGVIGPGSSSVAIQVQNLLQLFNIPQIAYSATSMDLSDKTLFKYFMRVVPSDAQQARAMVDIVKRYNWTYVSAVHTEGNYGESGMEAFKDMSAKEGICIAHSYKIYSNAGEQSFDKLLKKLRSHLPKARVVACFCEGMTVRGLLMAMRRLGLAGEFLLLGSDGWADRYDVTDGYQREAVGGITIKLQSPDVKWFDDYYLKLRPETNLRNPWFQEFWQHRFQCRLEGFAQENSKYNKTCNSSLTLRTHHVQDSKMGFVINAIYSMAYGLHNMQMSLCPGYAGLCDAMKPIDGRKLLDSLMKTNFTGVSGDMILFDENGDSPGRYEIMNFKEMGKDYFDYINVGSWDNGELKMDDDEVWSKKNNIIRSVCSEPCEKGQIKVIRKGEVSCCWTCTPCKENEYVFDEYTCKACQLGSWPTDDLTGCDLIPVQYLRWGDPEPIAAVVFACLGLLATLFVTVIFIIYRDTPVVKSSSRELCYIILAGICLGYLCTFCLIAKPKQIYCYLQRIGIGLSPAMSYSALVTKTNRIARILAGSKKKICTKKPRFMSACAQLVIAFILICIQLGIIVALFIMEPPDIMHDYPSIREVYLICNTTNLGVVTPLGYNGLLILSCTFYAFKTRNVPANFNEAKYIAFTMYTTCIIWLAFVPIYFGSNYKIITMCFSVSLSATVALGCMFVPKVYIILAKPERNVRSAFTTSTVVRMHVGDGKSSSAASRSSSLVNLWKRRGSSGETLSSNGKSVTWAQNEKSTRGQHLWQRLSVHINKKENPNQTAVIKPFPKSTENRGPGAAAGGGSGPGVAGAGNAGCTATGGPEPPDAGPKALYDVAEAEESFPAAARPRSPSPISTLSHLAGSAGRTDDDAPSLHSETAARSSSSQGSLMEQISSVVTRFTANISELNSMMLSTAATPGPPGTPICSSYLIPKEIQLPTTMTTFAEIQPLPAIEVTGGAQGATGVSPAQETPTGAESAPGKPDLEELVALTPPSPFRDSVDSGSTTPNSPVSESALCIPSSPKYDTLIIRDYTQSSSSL

Row | Structure (SMILES) | EC50
1 | Cc1cc(F)ccc1C(=O)N1CCC[C@H](c2nc(-c3ccncc3)no2)C1 [Example 53, (4-Fluoro-2-methyl-phenyl)-[(S)-3-(3-pyridin-4-yl-[1,2,4]oxadiazol-5-yl)-piperidin-1-yl]-methanone] | 1000 to 10000 nM
2 | O=C(c1ccccc1NCc1ccccc1)N1CCC[C@H](c2nc(-c3ccc(F)cc3)no2)C1 [Example 55, (2-Benzylamino-phenyl)-{(S)-3-[3-(4-fluoro-phenyl)-[1,2,4]oxadiazol-5-yl]-piperidin-1-yl}-methanone] | > 10000 nM
3 | Cc1oncc1C(=O)N1CCC[C@H](c2nc(-c3ccccc3)no2)C1 [Example 56, (5-Methyl-isoxazol-4-yl)-[(S)-3-(3-phenyl-[1,2,4]oxadiazol-5-yl)-piperidin-1-yl]-methanone] | < 1000 nM
4 | O=C(c1ccc(F)cc1)N1CCC[C@H](c2nc(-c3cnccn3)no2)C1 [Example 57, (4-Fluoro-phenyl)-[(S)-3-(3-pyrazin-2-yl-[1,2,4]oxadiazol-5-yl)-piperidin-1-yl]-methanone] | > 10000 nM
5 | O=C(c1ccc(F)cc1F)N1CCC[C@H](c2nc(-c3ccccc3)no2)C1 [Example 59, (2,4-Difluoro-phenyl)-[(S)-3-(3-phenyl-[1,2,4]oxadiazol-5-yl)-piperidin-1-yl]-methanone] | < 1000 nM
6 | O=C(c1ccc(F)cc1F)N1CCC[C@H](c2nc(-c3ccccc3F)no2)C1 [Example 60, (2,4-Difluoro-phenyl)-{(S)-3-[3-(2-fluoro-phenyl)-[1,2,4]oxadiazol-5-yl]-piperidin-1-yl}-methanone] | < 1000 nM
7 | Cc1oncc1C(=O)N1CCC[C@H](c2nc(-c3ccccc3F)no2)C1 [Example 61, {(S)-3-[3-(2-Fluoro-phenyl)-[1,2,4]oxadiazol-5-yl]-piperidin-1-yl}-(5-methyl-isoxazol-4-yl)-methanone] | < 1000 nM
8 | O=C(c1ccc(F)nc1)N1CCC[C@H](c2nc(-c3ccccc3)no2)C1 [Example 62, (6-Fluoro-pyridin-3-yl)-[(S)-3-(3-phenyl-[1,2,4]oxadiazol-5-yl)-piperidin-1-yl]-methanone] | < 1000 nM
9 | Cc1cc(F)ccc1C(=O)N1CCC[C@H](c2nc(-c3ccccc3)no2)C1 [Example 63, (4-Fluoro-2-methyl-phenyl)-[(S)-3-(3-phenyl-[1,2,4]oxadiazol-5-yl)-piperidin-1-yl]-methanone] | 1000 to 10000 nM
10 | O=C(c1ccc(F)nc1)N1CCC[C@H](c2nc(-c3ccccc3F)no2)C1 [Example 64, {(S)-3-[3-(2-Fluoro-phenyl)-[1,2,4]oxadiazol-5-yl]-piperidin-1-yl}-(6-fluoro-pyridin-3-yl)-methanone] | < 1000 nM
11 | Cc1oncc1C(=O)N1CCC[C@H](c2nc(-c3ccc(F)cc3F)no2)C1 [Example 65, {(S)-3-[3-(2,4-Difluoro-phenyl)-[1,2,4]oxadiazol-5-yl]-piperidin-1-yl}-(5-methyl-isoxazol-4-yl)-methanone] | 1000 to 10000 nM
12 | O=C(c1ccc(F)nc1)N1CCC[C@H](c2nc(-c3ccc(F)cc3F)no2)C1 [Example 66, {(S)-3-[3-(2,4-Difluoro-phenyl)-[1,2,4]oxadiazol-5-yl]-piperidin-1-yl}-(6-fluoro-pyridin-3-yl)-methanone] | < 1000 nM
13 | Cc1cc(F)ccc1C(=O)N1CCC[C@H](c2nc(-c3ccc(F)cc3F)no2)C1 [Example 67, {(S)-3-[3-(2,4-Difluoro-phenyl)-[1,2,4]oxadiazol-5-yl]-piperidin-1-yl}-(4-fluoro-2-methyl-phenyl)-methanone] | 1000 to 10000 nM
14 | O=C(c1ccc(F)c(F)c1)N1CCC[C@H](c2nc(-c3ccc(F)cc3F)no2)C1 [Example 68, (3,4-Difluoro-phenyl)-{(S)-3-[3-(2,4-difluoro-phenyl)-[1,2,4]oxadiazol-5-yl]-piperidin-1-yl}-methanone] | < 1000 nM
15 | O=C(c1ccc(F)cc1F)N1CCC[C@H](c2nc(-c3ccc(F)cc3F)no2)C1 [Example 69, (2,4-Difluoro-phenyl)-{(S)-3-[3-(2,4-difluoro-phenyl)-[1,2,4]oxadiazol-5-yl]-piperidin-1-yl}-methanone] | 1000 to 10000 nM
